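A five-concentration, 48-hour dose response in 96-well plates underlies each endpoint, interpolated linearly between surrounding concentrations. Abbreviation: GI50, concentration required for 50% inhibition of growth. TGI marks complete inhibition of growth.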
Columns and labels:
Test in all cases: growth of human tumour cells (NCI), 48 h
[1] = system: RXF 393 renal
[2] = system: NCI-H226 lung
[3] = system: SF-268 CNS
[4] = system: KM12 colon
[5] = system: OVCAR-5 ovarian
[6] = system: A549 NSCLC
[7] = system: EKVX NSCLC
[8] = system: U251 CNS
[9] = system: MALME-3M melanoma
[10] = system: SK-MEL-2 melanoma
[11] = system: SNB-19 CNS
[12] = system: OVCAR-8 ovarian
[13] = system: COLO 205 colon
[14] = system: T-47D breast
[15] = system: HCT-15 colon
[16] = system: CAKI-1 renal
[17] = system: HCT-116 colon
[18] = system: IGROV1 ovarian
[19] = system: NCI/ADR-RES ovarian
[20] = system: SF-539 CNS
[21] = system: MDA-MB-231 breast
[22] = system: 786-0 renal
[23] = system: ACHN renal
[24] = system: NCI-H460 lung
[25] = system: OVCAR-3 ovarian
[26] = system: HS 578T breast
[27] = system: OVCAR-4 ovarian
[28] = system: UACC-257 melanoma
[29] = system: MCF7 breast
[30] = system: MDA-MB-435
[31] = system: SF-295 CNS
[32] = system: NCI-H23 lung
[33] = system: SK-MEL-28 melanoma
[34] = system: SK-MEL-5 melanoma
[35] = system: SW-620 colon
[36] = system: A498 renal
[37] = system: NCI-H522 lung
[38] = system: SN12C renal
[39] = system: UACC-62 melanoma
[40] = system: M14 melanoma
[41] = system: HT29 colon
[42] = system: TK-10 renal
[43] = system: UO-31 renal
[44] = system: SK-OV-3 ovarian
[45] = system: HOP-62 NSCLC
[46] = system: SNB-75 CNS
[47] = system: DU-145 prostate
[48] = system: RPMI-8226 leukemia
[49] = system: LOX IMVI melanoma
[50] = system: BT-549 breast
[51] = system: HCC-2998 colon
[52] = system: MOLT-4 leukemia
[53] = system: PC-3 prostate
[54] = system: SR leukemia
[55] = system: HOP-92 NSCLC

Which TGI [1] does the source give for `Oc1cn(-c2ccc(Cl)cc2)nc1-c1nnc(Nc2ccccc2)o1` here?
Its TGI is 39.6 µM.

And the TGI [2]?
The TGI was 31.4 µM.

What about the TGI [3] of the same compound?
Its TGI is 33.7 µM.

What about the TGI [4] of the same compound?
Its TGI is 37.2 µM.

And the TGI [5]?
The TGI was over 100 µM.

And the TGI [6]?
The TGI was 43.3 µM.

And the TGI [7]?
The TGI was 72.8 µM.

And the TGI [8]?
Its TGI is 34.1 µM.

And the TGI [9]?
Its TGI is 50.1 µM.

What about the TGI [10] of the same compound?
Its TGI is 38.3 µM.

What about the TGI [11] of the same compound?
The TGI was 50.5 µM.

What about the TGI [12] of the same compound?
Its TGI is 43.6 µM.

What about the TGI [13] of the same compound?
Its TGI is 51 µM.

And the TGI [14]?
Its TGI is 50.3 µM.

And the TGI [15]?
Its TGI is 28 µM.

And the TGI [16]?
The TGI was over 100 µM.

What about the TGI [17] of the same compound?
The TGI was 29.6 µM.

And the TGI [18]?
The TGI was 32.4 µM.

What about the TGI [19] of the same compound?
The TGI was 30.1 µM.

And the TGI [20]?
Its TGI is 30.8 µM.

What about the TGI [21] of the same compound?
The TGI was 27.4 µM.

And the TGI [22]?
Its TGI is 36.1 µM.

What about the TGI [23] of the same compound?
The TGI was 71.6 µM.

And the TGI [24]?
Its TGI is 39.6 µM.

And the TGI [25]?
The TGI was over 100 µM.

What about the TGI [26] of the same compound?
Its TGI is 51.2 µM.

And the TGI [27]?
Its TGI is over 100 µM.

What about the TGI [28] of the same compound?
Its TGI is 43.5 µM.

What about the TGI [29] of the same compound?
Its TGI is 33.9 µM.

And the TGI [30]?
The TGI was 34.3 µM.

And the TGI [31]?
Its TGI is 39.2 µM.

What about the TGI [32] of the same compound?
Its TGI is 27.3 µM.

What about the TGI [33] of the same compound?
Its TGI is 34.9 µM.

What about the TGI [34] of the same compound?
The TGI was 23.6 µM.

What about the TGI [35] of the same compound?
Its TGI is 41 µM.

And the TGI [36]?
Its TGI is 29.5 µM.

And the TGI [37]?
Its TGI is 35.4 µM.

And the TGI [38]?
The TGI was 32.2 µM.

What about the TGI [39] of the same compound?
Its TGI is 30.6 µM.

What about the TGI [40] of the same compound?
The TGI was 37.5 µM.

What about the TGI [41] of the same compound?
The TGI was 22 µM.

What about the TGI [42] of the same compound?
The TGI was 38.1 µM.

What about the TGI [43] of the same compound?
Its TGI is 46.1 µM.

And the TGI [44]?
Its TGI is 49.4 µM.

And the TGI [45]?
The TGI was 31.6 µM.

What about the TGI [46] of the same compound?
Its TGI is 45.2 µM.

And the TGI [47]?
Its TGI is 42.1 µM.

For `COc1n[n+]([O-])c(C)cc1[N+](=O)[O-]`, which GI50 [1] is on record?
Its GI50 is 13.3 µM.

What about the TGI [1] of the same compound?
The TGI was 28.7 µM.

And the GI50 [48]?
The GI50 was 2.73 µM.

And the TGI [48]?
The TGI was 19.1 µM.

And the GI50 [2]?
The GI50 was 24.4 µM.

And the TGI [2]?
Its TGI is 63.3 µM.

And the GI50 [3]?
The GI50 was 18.1 µM.

What about the TGI [3] of the same compound?
Its TGI is 39.4 µM.

And the GI50 [4]?
The GI50 was 11.4 µM.

And the TGI [4]?
Its TGI is 30.3 µM.

And the GI50 [49]?
Its GI50 is 12.7 µM.

And the TGI [49]?
The TGI was 36 µM.

What about the GI50 [5] of the same compound?
Its GI50 is 19.6 µM.

What about the TGI [5] of the same compound?
Its TGI is 35.9 µM.

What about the GI50 [6] of the same compound?
The GI50 was 5.5 µM.

What about the TGI [6] of the same compound?
The TGI was 24.6 µM.

And the GI50 [7]?
The GI50 was 18.1 µM.

And the TGI [7]?
The TGI was 34.3 µM.

And the GI50 [8]?
The GI50 was 16.8 µM.

What about the TGI [8] of the same compound?
The TGI was 34.5 µM.

What about the GI50 [9] of the same compound?
The GI50 was 3.04 µM.

And the TGI [9]?
The TGI was 9.85 µM.

And the GI50 [10]?
Its GI50 is 11.2 µM.

What about the TGI [10] of the same compound?
The TGI was 24.5 µM.

What about the GI50 [12] of the same compound?
Its GI50 is 13.4 µM.

And the TGI [12]?
Its TGI is 39.5 µM.

And the GI50 [15]?
The GI50 was 2.74 µM.

What about the TGI [15] of the same compound?
The TGI was 13.9 µM.

And the GI50 [16]?
Its GI50 is 4.84 µM.

What about the TGI [16] of the same compound?
The TGI was 19.1 µM.

And the GI50 [17]?
The GI50 was 10.2 µM.

And the TGI [17]?
Its TGI is 23.9 µM.

And the GI50 [18]?
The GI50 was 12.1 µM.

What about the TGI [18] of the same compound?
The TGI was 24.8 µM.

What about the GI50 [19] of the same compound?
Its GI50 is 19.1 µM.

And the TGI [19]?
Its TGI is 43.7 µM.

And the GI50 [20]?
Its GI50 is 19.5 µM.

What about the TGI [20] of the same compound?
The TGI was 35.4 µM.

And the GI50 [21]?
Its GI50 is 19.5 µM.

What about the TGI [21] of the same compound?
Its TGI is 42.2 µM.

And the GI50 [22]?
The GI50 was 8.4 µM.

What about the TGI [22] of the same compound?
The TGI was 21.7 µM.

And the GI50 [23]?
The GI50 was 5.14 µM.

What about the TGI [23] of the same compound?
The TGI was 18.1 µM.

What about the GI50 [24] of the same compound?
Its GI50 is 3.05 µM.

And the TGI [24]?
The TGI was 16.4 µM.

What about the GI50 [50] of the same compound?
Its GI50 is 18.9 µM.

What about the TGI [50] of the same compound?
The TGI was 33.2 µM.

What about the GI50 [51] of the same compound?
Its GI50 is 14.3 µM.

And the TGI [51]?
The TGI was 27.6 µM.

And the GI50 [25]?
The GI50 was 8.44 µM.

What about the TGI [25] of the same compound?
Its TGI is 28.4 µM.

And the GI50 [26]?
The GI50 was 32.3 µM.

And the TGI [26]?
Its TGI is 67.3 µM.

And the GI50 [27]?
Its GI50 is 16.1 µM.

What about the TGI [27] of the same compound?
The TGI was 30.5 µM.

And the GI50 [28]?
The GI50 was 10.9 µM.

And the TGI [28]?
The TGI was 24.4 µM.

And the GI50 [29]?
The GI50 was 2.07 µM.

And the TGI [29]?
Its TGI is 16.2 µM.

What about the GI50 [52] of the same compound?
The GI50 was 10.7 µM.

And the TGI [52]?
Its TGI is 35.1 µM.

What about the GI50 [30] of the same compound?
Its GI50 is 16.2 µM.

What about the TGI [30] of the same compound?
The TGI was 33.8 µM.

And the GI50 [31]?
Its GI50 is 11.3 µM.

And the TGI [31]?
Its TGI is 28.5 µM.

And the GI50 [53]?
Its GI50 is 15.9 µM.

And the TGI [53]?
The TGI was 32.6 µM.

And the GI50 [32]?
Its GI50 is 14.8 µM.

And the TGI [32]?
Its TGI is 30.3 µM.

And the GI50 [34]?
The GI50 was 11.3 µM.

What about the TGI [34] of the same compound?
The TGI was 24.5 µM.

And the GI50 [35]?
The GI50 was 15.7 µM.

And the TGI [35]?
The TGI was 39.6 µM.

And the GI50 [36]?
Its GI50 is 20.2 µM.

And the TGI [36]?
Its TGI is 46.3 µM.

What about the GI50 [37] of the same compound?
Its GI50 is 8.26 µM.

What about the TGI [37] of the same compound?
Its TGI is 22.7 µM.

And the GI50 [38]?
Its GI50 is 13.5 µM.

What about the TGI [38] of the same compound?
The TGI was 31.6 µM.

And the GI50 [39]?
Its GI50 is 10.7 µM.

What about the TGI [39] of the same compound?
Its TGI is 23.7 µM.

What about the GI50 [54] of the same compound?
The GI50 was 11.1 µM.

And the TGI [54]?
The TGI was 31.2 µM.

And the GI50 [40]?
The GI50 was 4.97 µM.

And the TGI [40]?
Its TGI is 18.3 µM.

And the GI50 [42]?
Its GI50 is 2.42 µM.

And the TGI [42]?
The TGI was 10.2 µM.

What about the GI50 [43] of the same compound?
Its GI50 is 12.6 µM.

And the TGI [43]?
Its TGI is 25.4 µM.

And the GI50 [55]?
The GI50 was 16.2 µM.

What about the TGI [55] of the same compound?
The TGI was 35.2 µM.

And the GI50 [45]?
The GI50 was 16.6 µM.

And the TGI [45]?
The TGI was 31.5 µM.

And the GI50 [47]?
The GI50 was 15.7 µM.

What about the TGI [47] of the same compound?
Its TGI is 29.3 µM.

Reference: PubChem BioAssay (NCI)
